For six molecules, IC50 and solubility results are on record in patent publication US20140005163A1 (NOVARTIS AG, priority 2010, published 2014).

Converted amounts (≈) assume the structure as drawn.

As a reminder, the IC50 is the concentration needed to halve the response being measured. One may read the solubility as the concentration that dissolves in the medium under given conditions.

In data set [1] the test system is PKB Ser473 phosphorylation in Rat1-myr-HA-p110 beta cells. Nature of the data set: Reverse protein array assay, PKB Ser473 phosphorylation in Rat1-myr-p110 beta cells. It counts as cell-based. The conditions noted are these: 0.5 h, pAkt Ser473, 30 minutes incubation, read-out: p-PKB IC50. In outline:
(§1)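 Rat1 cells expressing myristoylated HA-tagged p110 alpha, beta or delta were plated for at least 20 h, then exposed to 8-step serial compound dilutions (0.2% DMSO final) for 30 min at 37 °C. Lysates were spotted at four dilutions on protein microarrays, and relative fluorescence intensity of phospho-Ser473 PKB was calculated.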

The nature of another data set: Solubility at pH 6.8. The data set is classed as physicochemical. The conditions noted are these: pH 6.8, aqueous buffer, thermodynamic from solid; read-out: solubility. The gist of the method: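 Following the procedure of Zhou et al. (2007), compound solubility was determined at pH 6.8.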
Another data set concerns the target T1, PI3K delta (Homo sapiens, UniProt O00329).
T1 construct: for the full-length p110-d subunit are generated and fused by overlapping PCR; p85(iSH2) fusion partner (see partner chain) (N); His tag (C); made in house; host or cells: baculovirus; Tn5 (Trichoplusia ni) or TiniPro insect cells
Put plainly: PI3K delta kinase assay (Kinase-Glo luminescence). The data set is classed as biochemical. In outline:
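Lipid kinase activity of a His-tagged p110δ full-length/p85 iSH2 fusion (10 nM) toward bovine liver phosphatidylinositol (10 μg/mL) at 1 μM ATP, pH 7.5, 60 min, room temperature. ATP consumption is quantified by luciferase-based luminescence. Four-parameter logistic fitting gives IC50.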
(In general: Kinase-Glo measures the ATP left after a reaction by luminescence.)

The next data set concerns the target T2, PI3K beta (Homo sapiens, UniProt P42338).
T2 construct: for the full-length p110-b subunit are generated and fused by overlapping PCR; p85(iSH2) fusion partner (see partner chain) (N); His tag (C); made in house; host or cells: baculovirus; Tn5 (Trichoplusia ni) or TiniPro insect cells
Nature of the data set: PI3K beta kinase assay (Kinase-Glo luminescence). The data set is classed as biochemical. In outline:
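Residual ATP after a 60 min room-temperature reaction is quantified by Kinase-Glo luminescence. Enzyme: 25 nM BV-949 (p85 iSH2–linker–full-length p110β); substrates 1 μM ATP, 10 μg/mL PI; buffer Tris pH 7.5, MgCl2, NaCl, CHAPS, DTT. Eight concentrations per compound, four-parameter logistic IC50.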

Data set [2] deals with PKB Ser473 phosphorylation in Rat1-myr-HA-p110 delta cells. Nature of the data set: Reverse protein array assay, PKB Ser473 phosphorylation in Rat1-myr-p110 delta cells. The conditions noted are these: read-out: p-PKB IC50. It counts as cell-based. The gist of the method:
as §1

T1 sequence (O00329 with tags, fused parts or gaps limits assumed): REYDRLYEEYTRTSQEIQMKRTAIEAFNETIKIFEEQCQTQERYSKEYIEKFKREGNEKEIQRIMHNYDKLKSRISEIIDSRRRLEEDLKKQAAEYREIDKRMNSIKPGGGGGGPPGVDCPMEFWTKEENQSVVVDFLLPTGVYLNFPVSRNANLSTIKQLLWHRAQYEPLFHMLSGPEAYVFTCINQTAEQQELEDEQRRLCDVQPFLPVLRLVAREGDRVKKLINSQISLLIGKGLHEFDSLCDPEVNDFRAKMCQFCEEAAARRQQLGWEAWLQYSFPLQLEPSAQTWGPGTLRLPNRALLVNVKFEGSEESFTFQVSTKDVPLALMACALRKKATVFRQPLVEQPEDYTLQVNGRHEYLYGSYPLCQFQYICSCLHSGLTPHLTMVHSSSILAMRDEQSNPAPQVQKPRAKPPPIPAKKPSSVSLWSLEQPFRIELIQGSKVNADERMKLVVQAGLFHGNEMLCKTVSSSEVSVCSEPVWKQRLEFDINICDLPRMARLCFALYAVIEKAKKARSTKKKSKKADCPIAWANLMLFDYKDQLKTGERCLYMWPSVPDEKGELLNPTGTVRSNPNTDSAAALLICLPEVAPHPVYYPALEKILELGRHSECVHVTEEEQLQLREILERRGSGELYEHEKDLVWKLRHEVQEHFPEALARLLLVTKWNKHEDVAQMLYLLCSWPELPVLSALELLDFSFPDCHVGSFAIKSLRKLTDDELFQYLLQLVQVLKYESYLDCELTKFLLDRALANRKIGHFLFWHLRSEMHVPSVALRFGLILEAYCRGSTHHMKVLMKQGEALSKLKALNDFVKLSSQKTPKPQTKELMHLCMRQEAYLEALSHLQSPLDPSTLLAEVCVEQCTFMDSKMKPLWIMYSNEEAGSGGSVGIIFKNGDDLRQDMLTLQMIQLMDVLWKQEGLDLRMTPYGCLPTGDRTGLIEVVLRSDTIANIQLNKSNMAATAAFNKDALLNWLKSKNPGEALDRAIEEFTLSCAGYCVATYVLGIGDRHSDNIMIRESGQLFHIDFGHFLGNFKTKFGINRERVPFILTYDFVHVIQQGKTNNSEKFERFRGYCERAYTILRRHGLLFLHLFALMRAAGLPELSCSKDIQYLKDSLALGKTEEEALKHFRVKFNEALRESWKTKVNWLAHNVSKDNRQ
T2 sequence (P42338 with tags, fused parts or gaps limits assumed): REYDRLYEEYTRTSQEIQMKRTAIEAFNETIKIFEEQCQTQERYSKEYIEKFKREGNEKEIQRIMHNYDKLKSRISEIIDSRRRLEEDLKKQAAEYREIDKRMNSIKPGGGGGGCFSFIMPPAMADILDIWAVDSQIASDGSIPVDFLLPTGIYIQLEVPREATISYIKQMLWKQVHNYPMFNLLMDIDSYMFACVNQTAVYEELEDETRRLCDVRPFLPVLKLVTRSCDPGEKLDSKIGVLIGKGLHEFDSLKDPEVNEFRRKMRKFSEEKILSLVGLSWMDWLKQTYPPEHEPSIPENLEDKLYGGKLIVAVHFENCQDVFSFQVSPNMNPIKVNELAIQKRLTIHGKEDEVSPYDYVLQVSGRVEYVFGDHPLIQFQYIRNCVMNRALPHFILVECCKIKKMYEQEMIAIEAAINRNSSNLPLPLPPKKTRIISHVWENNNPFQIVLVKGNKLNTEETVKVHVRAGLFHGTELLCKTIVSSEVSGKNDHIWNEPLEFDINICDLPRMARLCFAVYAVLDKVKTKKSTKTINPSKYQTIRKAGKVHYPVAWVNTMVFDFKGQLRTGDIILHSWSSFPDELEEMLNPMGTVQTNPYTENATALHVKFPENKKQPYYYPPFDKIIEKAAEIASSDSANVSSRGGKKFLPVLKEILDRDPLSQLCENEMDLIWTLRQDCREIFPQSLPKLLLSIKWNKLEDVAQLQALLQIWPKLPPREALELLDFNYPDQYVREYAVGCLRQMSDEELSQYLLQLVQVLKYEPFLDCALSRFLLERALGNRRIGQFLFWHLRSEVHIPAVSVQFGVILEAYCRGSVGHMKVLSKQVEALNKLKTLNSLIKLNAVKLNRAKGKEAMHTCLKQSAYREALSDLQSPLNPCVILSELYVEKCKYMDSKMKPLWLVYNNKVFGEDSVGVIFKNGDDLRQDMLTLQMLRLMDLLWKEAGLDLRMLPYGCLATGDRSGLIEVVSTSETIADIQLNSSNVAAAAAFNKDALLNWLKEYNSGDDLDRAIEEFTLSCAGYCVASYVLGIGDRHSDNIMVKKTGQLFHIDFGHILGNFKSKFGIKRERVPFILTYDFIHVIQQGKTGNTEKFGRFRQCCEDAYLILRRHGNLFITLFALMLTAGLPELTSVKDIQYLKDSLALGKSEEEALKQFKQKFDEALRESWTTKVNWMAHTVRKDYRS

For the molecule `Cc1nn(C)cc1-n1c(=O)n(C)c2cnc3ccc(-c4cncc(OC(F)F)c4)cc3c21` [Example 183, 8-(5-Difluoromethoxy-pyridin-3-yl)-1-(1,3-dimethyl-1H-pyrazol-4-yl)-3-methyl-1,3-dihydro-imidazo[4,5-c]quinolin-2-one], the IC50 in data set [1] amounted to 52 nM; on PI3K delta, 4 nM; at PI3K beta it was 4 nM; in data set [2] it was 51 nM. Moreover, the solubility in the data set “Solubility at pH 6.8” turned out to be 84 µg/mL (≈ 192 µM).
As to `CCOc1cc(-c2ccc3ncc4c(c3c2)n(-c2cn(C)nc2C)c(=O)n4C)ccn1` [Example 91, 1-(1,3-Dimethyl-1H-pyrazol-4-yl)-8-(2-ethoxy-pyridin-4-yl)-3-methyl-1,3-dihydro-imidazo[4,5-c]quinolin-2-one], the IC50 came to 391 nM in data set [1], 203 nM at PI3K delta, 409 nM at PI3K beta and 631 nM in data set [2]. Further, the solubility in “Solubility at pH 6.8” stood at 13 µg/mL (≈ 31.4 µM).
In the same order, the values of `CCOc1cc(-c2ccc3ncc4c(c3c2)n(-c2cn(C)nc2C)c(=O)n4C)cnc1C` [Example 85.1, 1-(1,3-Dimethyl-1H-pyrazol-4-yl)-8-(5-ethoxy-6-methyl-pyridin-3-yl)-3-methyl-1,3-dihydro-imidazo[4,5-c]quinolin-2-one] are 6 nM, 3 nM, 12 nM, 33 nM and 6 µg/mL (≈ 14 µM).
In the same order, the values of `COc1ncc(-c2ccc3ncc4c(c3c2)n(-c2cn(C)nc2C)c(=O)n4C)cn1` [Example 17.2, 1-(1,3-Dimethyl-1H-pyrazol-4-yl)-8-(2-methoxy-pyrimidin-5-yl)-3-methyl-1,3-dihydro-imidazo[4,5-c]quinolin-2-one] are 40 nM, 38 nM, 206 nM, 58 nM and 32 µg/mL (≈ 79.7 µM).
On the same counts, the results for `COc1ccc(-c2ccc3ncc4c(c3c2)n(-c2c(C)nn(C)c2C)c(=O)n4C)cn1` [Example 2.4, 8-(6-Methoxy-pyridin-3-yl)-3-methyl-1-(1,3,5-trimethyl-1H-pyrazol-4-yl)-1,3-dihydro-imidazo[4,5-c]quinolin-2-one] are 386 nM, 33 nM, 120 nM, 882 nM and 50 µg/mL (≈ 121 µM).
For the molecule `COc1cc(-c2ccc3ncc4c(c3c2)n(-c2cn(C)nc2C)c(=O)n4C)cnc1C` [Example 184, 1-(1,3-Dimethyl-1H-pyrazol-4-yl)-8-(5-methoxy-6-methyl-pyridin-3-yl)-3-methyl-1,3-dihydro-imidazo[4,5-c]quinolin-2-one], the IC50 was 16 nM in data set [1], 4 nM on PI3K delta, 10 nM at PI3K beta and 16 nM in data set [2]. For the same molecule, the solubility in the data set “Solubility at pH 6.8” was determined as 8 µg/mL (≈ 19.3 µM).
